# How the values were obtained:
# lambsquarters = assay: Test B pre-/postemergence herbicide test; type: in vivo, Chenopodium album
# Summary of the method: (§1)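 Seeds were planted and treated preemergence with compounds formulated in a non-phytotoxic solvent mixture containing surfactant, while plants at the 1- to 4-leaf stage (2 to 18 cm) received postemergence sprays. Flooded paddy plants were grown to the 2-leaf stage. After 13 to 15 days in a greenhouse, injury was visually rated 0–100 against untreated controls.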
# barnyardgrass [1] = assay: Test B pre-/postemergence herbicide test; type: in vivo, Echinochloa crus-galli
# Summary of the method: (§2)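 Pre: seeds sown, then sprayed. Post: 1–4-leaf plants (2–18 cm) sprayed at the same time. Paddy: flooded, treated at 2-leaf stage. Formulation: non-phytotoxic solvent with surfactant. Greenhouse 13–15 days; visual 0–100 score relative to controls.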
# blackgrass = assay: Test B postemergence herbicide test; type: in vivo, Alopecurus myosuroides; conditions: scale 0 (no effect) to 100 (complete control)
# Summary of the method: (§3)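 Read-out: visual comparison with controls, scored 0 to 100, where 100 means complete control and 0 no effect. Formulated chemicals were applied postemergence to plants 2–18 cm tall (1- to 4-leaf), or to flooded-paddy plants at the 2-leaf stage, then held 13 to 15 days under glass.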
# redroot pigweed = assay: Test A pre-/postemergence herbicide test; type: in vivo, Amaranthus retroflexus
# Summary of the method: (§4)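 Sandy loam soil given preemergence directed spray; plants at 2 to 10 cm, one- to two-leaf stage, sprayed to runoff postemergence, compounds in non-phytotoxic solvent with surfactant. Injury rated visually versus untreated controls after about ten greenhouse days, 0 (no effect) to 100 (complete control); dash means not tested.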
# pigweed = assay: Test B pre-/postemergence herbicide test; type: in vivo, Amaranthus retroflexus
# Summary of the method: as §1
# morningglory [2] = assay: Test B pre-/postemergence herbicide test; type: in vivo, Ipomoea coccinea
# Summary of the method: as §2
# corn = assay: Test B pre-/postemergence herbicide test; type: in vivo, Zea mays
# Summary of the method: as §1
# morningglory [3] = assay: Test A pre-/postemergence herbicide test; type: in vivo, Ipomoea spp.
# Summary of the method: as §4
# large crabgrass [4] = assay: Test A pre-/postemergence herbicide test; type: in vivo, Digitaria sanguinalis
# Summary of the method: as §4
# large crabgrass [5] = assay: Test B pre-/postemergence herbicide test; type: in vivo, Digitaria sanguinalis
# Summary of the method: as §1
# rice [6] = assay: Test B flooded paddy test; type: in vivo, Oryza sativa; conditions: 1000 g ai/ha, visual rating, scale 0 to 100 (0 no effect, 100 complete control), 13 to 15 days
# Summary of the method: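 Visual ratings, 0 (no effect) to 100 (complete control), made versus controls after 13–15 d greenhouse. Paddy plants treated at 2-leaf stage; postemergence plants at 1- to 4-leaf stage, 2–18 cm tall.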
# giant foxtail [7] = assay: Test B pre-/postemergence herbicide test; type: in vivo, Setaria faberi
# Summary of the method: as §1
# ducksalad = assay: Test B flooded paddy test; type: in vivo, Heteranthera limosa; conditions: 1000 g ai/ha, visual rating, scale 0 to 100 (0 no effect, 100 complete control), 13 to 15 days
# Summary of the method: as §3
# giant foxtail [8] = assay: Test A pre-/postemergence herbicide test; type: in vivo, Setaria faberi
# Summary of the method: as §4
# cocklebur = assay: Test B pre-/postemergence herbicide test; type: in vivo, Xanthium strumarium
# Summary of the method: as §2
# velvetleaf [9] = assay: Test A pre-/postemergence herbicide test; type: in vivo, Abutilon theophrasti
# Summary of the method: as §4
# wild oat = assay: Test B postemergence herbicide test; type: in vivo, Avena fatua; conditions: scale 0 (no effect) to 100 (complete control)
# Summary of the method: (§5)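 Postemergence plants were sprayed with formulated test chemicals at 2 to 18 cm height (1- to 4-leaf stage); paddy species were grown to the 2-leaf stage. After 13 to 15 days in a greenhouse, injury was rated visually against untreated controls on a 0–100 scale (0 = no effect, 100 = complete control).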
# barnyardgrass [10] = assay: Test B flooded paddy test; type: in vivo, Echinochloa crus-galli; conditions: 1000 g ai/ha, visual rating, scale 0 to 100 (0 no effect, 100 complete control), 13 to 15 days
# Summary of the method: as §3
# Surinam grass = assay: Test B pre-/postemergence herbicide test; type: in vivo, Urochloa decumbens
# Summary of the method: as §1
# velvetleaf [11] = assay: Test B pre-/postemergence herbicide test; type: in vivo, Abutilon theophrasti
# Summary of the method: as §1
# [12] = system: small flower umbrella sedge; assay: Test B flooded paddy test; type: in vivo, Cyperus difformis; conditions: 1000 g ai/ha, visual rating, scale 0 to 100 (0 no effect, 100 complete control), 13 to 15 days
# Summary of the method: as §3
# rice [13] = assay: Test B pre-/postemergence herbicide test; type: in vivo, Oryza sativa; conditions: preemergence, 125 g ai/ha; 0 to 100 scale, 0 is no effect, 100 is complete control
# Summary of the method: as §1
# barnyardgrass [14] = assay: Test A pre-/postemergence herbicide test; type: in vivo, Echinochloa crus-galli
# Summary of the method: as §4
# wheat = assay: Test B postemergence herbicide test; type: in vivo, Triticum aestivum; design: key to Wheat plant response rating: 0 = no effect, 100 = complete control; conditions: scale 0 (no effect) to 100 (complete control)
# Summary of the method: as §5
# [15] = Postemergence, 500 g ai/ha, visual rating after 13 to 15 days, scale 0 (no effect) to 100 (complete control)
# [16] = postemergence, 125 g ai/ha, visual rating, scale 0 (no effect) to 100 (complete control)
# [17] = preemergence, 125 g ai/ha, 0 to 100 scale, 0 is no effect, 100 is complete control
# [18] = Preemergence, 500 g ai/ha, scale 0 to 100
# [19] = Postemergence, 500 g ai/ha, visual rating after 13 to 15 days
# [20] = postemergence, 125 g ai/ha, visual rating
# [21] = Postemergence, 500 g ai/ha, 0 to 100 scale, 0 no effect, 100 complete control
# [22] = Postemergence, 2000 g ai/ha, 0 to 100 scale, 0 no effect, 100 complete control
# [23] = Preemergence, 500 g ai/ha, visual rating, 0 to 100 scale (0 no effect, 100 complete control)
# [24] = Preemergence, 2000 g ai/ha, 0 to 100 scale, 0 no effect, 100 complete control
structure (smiles),measurement,setting,value
CCOC(=O)c1cc(NC(=O)c2cc(C(C)(C)C)nn2CC)ccc1F [Compound 89],"Plant response rating, Lambsquarters",lambsquarters; [15],60
same,Lambsquarters plant response rating,lambsquarters; [16],30
same,"Plant response rating, Lambsquarters",lambsquarters; [17],0
same,"Plant response rating, Barnyardgrass",barnyardgrass [1]; [15],20
same,Barnyardgrass plant response rating,barnyardgrass [1]; [18],0
same,Barnyardgrass plant response rating,barnyardgrass [1]; [16],10
same,"Plant response rating, Barnyardgrass",barnyardgrass [1]; [17],0
same,"Plant response rating, Blackgrass",blackgrass; [19],10
same,Blackgrass plant response rating,blackgrass; [20],0
same,Pigweed plant response rating,redroot pigweed; [21],20
same,"Plant response rating, Pigweed",redroot pigweed; [22],30
same,Pigweed plant response rating,redroot pigweed; [23],0
same,Pigweed plant response rating,redroot pigweed; [24],10
same,"Plant response rating, Pigweed",pigweed; [15],40
same,Pigweed plant response rating,pigweed; [16],20
same,"Plant response rating, Pigweed",pigweed; [17],0
same,"Plant response rating, Morningglory",morningglory [2]; [15],50
same,Morningglory plant response rating,morningglory [2]; [16],20
same,"Plant response rating, Morningglory",morningglory [2]; [17],0
same,"Plant response rating, Corn",corn; [15],20
same,Corn plant response rating,corn; [18],0
same,Corn plant response rating,corn; [16],10
same,"Plant response rating, Corn",corn; [17],0
same,Morningglory plant response rating,morningglory [3]; [21],20
same,"Plant response rating, Morningglory",morningglory [3]; [22],15
same,Morningglory plant response rating,morningglory [3]; [23],0
same,Morningglory plant response rating,morningglory [3]; [24],10
same,"Crabgrass, Large plant response rating",large crabgrass [4]; [21],20
same,"Plant response rating, Crabgrass, Large",large crabgrass [4]; [22],25
same,"Crabgrass, Large plant response rating",large crabgrass [4]; [23],0
same,"Crabgrass, Large plant response rating",large crabgrass [4]; [24],0
same,"Plant response rating, Crabgrass, Large",large crabgrass [5]; [15],20
same,"Crabgrass, Large plant response rating",large crabgrass [5]; [18],80
same,"Crabgrass, Large plant response rating",large crabgrass [5]; [16],10
same,"Plant response rating, Crabgrass, Large",large crabgrass [5]; [17],0
same,Rice plant response rating,rice [6],10
same,"Plant response rating, Foxtail, Giant",giant foxtail [7]; [15],20
same,"Foxtail, Giant plant response rating",giant foxtail [7]; [18],0
same,"Foxtail, Giant plant response rating",giant foxtail [7]; [16],20
same,"Plant response rating, Foxtail, Giant",giant foxtail [7]; [17],0
same,Ducksalad plant response rating,ducksalad,0
same,"Foxtail, Giant plant response rating",giant foxtail [8]; [21],20
same,"Plant response rating, Foxtail, Giant",giant foxtail [8]; [22],20
same,"Foxtail, Giant plant response rating",giant foxtail [8]; [23],0
same,"Foxtail, Giant plant response rating",giant foxtail [8]; [24],0
same,"Plant response rating, Cocklebur",cocklebur; [15],90
same,Cocklebur plant response rating,cocklebur; [18],0
same,Cocklebur plant response rating,cocklebur; [16],70
same,"Plant response rating, Cocklebur",cocklebur; [17],0
same,Velvetleaf plant response rating,velvetleaf [9]; [21],20
same,"Plant response rating, Velvetleaf",velvetleaf [9]; [22],20
same,Velvetleaf plant response rating,velvetleaf [9]; [23],0
same,Velvetleaf plant response rating,"velvetleaf [9]; Preemergence, 2000 g ai/ha, visual rating, 0 to 100 scale (0 no effect, 100 complete control)",10
same,"Plant response rating, Oat, Wild",wild oat; [19],30
same,"Oat, Wild plant response rating",wild oat; [20],20
same,Barnyardgrass plant response rating,barnyardgrass [10],10
same,"Plant response rating, Surinam Grass",Surinam grass; [15],20
same,Surinam Grass plant response rating,Surinam grass; [16],10
same,"Plant response rating, Surinam Grass",Surinam grass; [17],0
same,"Plant response rating, Velvetleaf",velvetleaf [11]; [15],50
same,Velvetleaf plant response rating,velvetleaf [11]; [16],30
same,"Plant response rating, Velvetleaf",velvetleaf [11]; [17],0
same,"Sedge, Umbrella plant response rating",[12],60
same,"Plant response rating, Rice",rice [13],0
same,Barnyardgrass plant response rating,barnyardgrass [14]; [21],20
same,"Plant response rating, Barnyardgrass",barnyardgrass [14]; [22],20
same,Barnyardgrass plant response rating,barnyardgrass [14]; [23],0
same,Barnyardgrass plant response rating,barnyardgrass [14]; [24],0
same,"Plant response rating, Wheat",wheat; [19],20
same,Wheat plant response rating,wheat; [20],20

# Reference: US20060069132A1, “Azolecarboxamide herbicides” (priority 2004, published 2006)
